In the assay the test system is récepteurs 5HT - 3. Kind of assay: Inhibition of the Bezold-Jarisch effect (reflex bradycardia after i.v. serotonin) in the anaesthetised rat. Type of assay: in vivo. The source says: Cette propriété est indicatrice d'un effet antagoniste des récepteurs 5HT - 3.
Cette étude est réalisée sur des rats Charles River d'un poids compris entre 350 et 400 g anesthésiés par une dose de 1,25 g.kg⁻¹ d'uréthanne administré intrapéritonéalement. La pression artérielle est enregistrée au niveau d'une artère carotide au moyen d'une cellule de pression Statham P 23 dB. La fréquence cardiaque est enregistrée à partir de la pression artérielle en utilisant un cardiotachymètre. Les enregistrements sont réalisés sur un enregistreur GOULD 2400. Un cathéter est placé dans la veine jugulaire et atteint l'oreillette droite de l'animal. L'effet Bezold-Jarisch est provoqué par une injection rapide de sérotonine à la dose de 40 µg/kg par voie intraveineuse dans l'oreillette droite. Le ralentissement cardiaque est associé à une chute de la pression artérielle qui provient de la stimulation des fibres afférentes vagales principalement localisées dans le ventricule droit.
Les produits à tester sont administrés par voie intraveineuse aux doses de 10 µg/kg, 100 µg/kg et 1 mg/kg. Un effet Bezold-Jarisch est provoqué 5, 15, 30, 45, 60, 90 et 120 minutes après injection des produits testés.
Le pourcentage d'inhibition de la bradycardie réflexe est évalué à partir du tracé de fréquence cardiaque. Les pourcentages d'inhibition provoqués par le produit de l'invention, ses isomères, des produits structuralement voisins, ainsi que par le produit de référence ICS 205930 sont indiqués dans le tableau I qui donne l'inhibition en % du réflexe Bezold chez le rat en fonction du temps; tous les produits ont été administrés par voie i.v à la même dose de 10 µg/kg.; les tests ont été réalisés sur 8 animaux.

Regarding `CN1C2CCC1CC(OC(=O)c1cccc3ccsc13)C2` (stereo not drawn) [Exemple 1, Chlorhydrate d'endo [(méthyl - 8 aza - 8 bicyclo [3.2.1]octyl - 3)oxycarbonyl] - 7 benzo [b] thiphène], the “effet Bezold-Jarisch (bradycardie et hypotension après injection de sérotonine)” value (rat, i.v., doses between 10 µg/kg and 1 mg/kg, result in words) was “antagonise de façon intense et prolongée”. Moreover, for the setting “summary in words, refers to tableau I”, the “activité antagoniste 5HT₃” value is on record as “actif”.

On to `CN1[C@@H]2CC[C@H]1C[C@@H](OC(=O)c1c[nH]c3ccccc13)C2` [ICS 205-930], for which, for the setting “inhibition of reflex bradycardia (Bezold reflex), rat, i.v. 10 µg/kg, 15 min after injection, serotonin 40 µg/kg i.v., 8 animals”, the “Inhibition % après 15 min.” value is 79%. The “Inhibition % après 30 min.” value (inhibition of reflex bradycardia (Bezold reflex), rat, i.v. 10 µg/kg, 30 min after injection, serotonin 40 µg/kg i.v., 8 animals) is reported as 65%. Moreover, the “Inhibition % après 60 min.” value (inhibition of reflex bradycardia (Bezold reflex), rat, i.v. 10 µg/kg, 60 min after injection, serotonin 40 µg/kg i.v., 8 animals) is on record as 14%. For the setting “inhibition of reflex bradycardia (Bezold reflex), rat, i.v. 10 µg/kg, 120 min after injection, serotonin 40 µg/kg i.v., 8 animals”, the “Inhibition % après 120 min.” value is given as “inactif”.
